Measurements reported in patent publication US8383637B2, “2-amino-quinazoline derivatives useful as inhibitors of β-secretase (BACE)” (Jansssen Pharmaceutica N.V., priority 2004, dated 2013).

Biological target: T1, β-secretase(BACE) (Homo sapiens, UniProt P56817)
T1 construct: purchased Panvera
Test: BACE FS1% Inhibition Assay
Assay type: biochemical
Details: FS1 substrate; for % Inhibition (FS) 3 μM: 3 μM test compound; for % Inhibition (FS) 10 μM: 10 μM test compound; for % Inhibition (FS) 0.3 μM: 0.3 μM test compound; for % Inhibition (FS) 1 μM: 1 μM test compound
Protocol: BACE FS1% Inhibition Assay The following reagents were used in this assay: sodium acetate, PEG8000 (Sigma), DMSO, HEPES, FS1 substrate [[…]] […] The FS1-substrate stock solution was prepared in DMSO as a 10 mg/mL solution. The FS1-substrate working solution was prepared by diluting the 10 mg/mL stock solution with substrate assay buffer to a final concentration of 300 μg/mL. The β-secretase (BACE) working solution was prepared by diluting a 0.83 mg/mL BACE stock solution with enzyme assay buffer to a final concentration of 4 μg/mL. Test compounds were dissolved in DMSO to 10 mM. […] The screening procedure for this assay was as follows: 15 μL of BACE working solution was pipetted into each well of a 96-well plate. To each well was then pipetted 2 μL of test compound at the selected concentration. Test compound and BACE were then mixed with a pipettor and incubated for 20 min at room temperature. To each well was then added 10 μL of the FS1 substrate working solution. The plates were then incubated for 1 hour at room temperature. […] The procedure for the blank was as follows. 15 μL of assay buffer was pipetted into each well to be used as a blank control. To each well was then added 2 μL of vehicle and 10 μL of FS1-substrate working solution. The plates were then incubated for 1 hour at room temperature. […] The procedure for the positive control was as follows: 15 μL of BACE working solution was pipetted into each well to be used as a positive control. To each well was then pipetted 2 μL of vehicle. Vehicle and BACE were then mixed with a pipettor and incubated for 20 min at room temperature. To each well was then added 10 μL of the FS1 substrate working solution. The plates were then incubated for 1 hour at room temperature. […] For test compounds, % inhibition was determined at each concentration as follows: [formula]

T1 sequence (P56817 46-501): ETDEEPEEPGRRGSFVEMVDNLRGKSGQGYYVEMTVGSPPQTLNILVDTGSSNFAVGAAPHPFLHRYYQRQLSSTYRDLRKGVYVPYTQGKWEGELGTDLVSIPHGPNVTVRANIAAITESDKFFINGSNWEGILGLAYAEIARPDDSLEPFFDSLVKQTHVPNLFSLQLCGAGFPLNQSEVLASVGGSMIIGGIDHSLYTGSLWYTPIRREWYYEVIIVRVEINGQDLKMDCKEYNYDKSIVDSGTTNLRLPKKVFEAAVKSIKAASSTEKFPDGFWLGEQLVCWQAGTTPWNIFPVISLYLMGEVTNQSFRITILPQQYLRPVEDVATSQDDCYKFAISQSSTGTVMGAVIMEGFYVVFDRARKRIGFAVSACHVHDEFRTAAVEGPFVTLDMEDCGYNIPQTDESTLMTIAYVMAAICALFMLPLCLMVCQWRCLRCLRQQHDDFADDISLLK

| SMILES | % Inhibition (FS) 3 μM [%] | % Inhibition (FS) 10 μM [%] | % Inhibition (FS) 0.3 μM [%] | % Inhibition (FS) 1 μM [%] |
| --- | --- | --- | --- | --- |
| COc1ccc2c(c1)C(CC(=O)N(C)C1CCCCC1)CC2N1Cc2cc(Oc3ccccc3)ccc2N=C1N (stereo not shown) [Compound 146] | <30 | 39 |  |  |
| NC1=Nc2ccc(Oc3ccccc3)cc2CN1C1c2ccccc2-c2c(C(=O)N(C3CCCCC3)C3CCCCC3)cccc21 (stereo not shown) [Compound 147] | <30 | 71 |  |  |
| CCCCCC(CCC(=O)NC1CCCCCC1)N1Cc2cc(Oc3ccccc3)ccc2N=C1N (stereo not shown) [Compound 150] | 90 |  | <30 | <30 |
| NC1=Nc2ccc(Oc3ccccc3)cc2CN1CCNC(=O)CCc1ccccc1 [Compound 155] | <30 | 49 |  |  |
| CC(C)(C)c1ccc(C(=O)NCCN2Cc3cc(Oc4ccccc4)ccc3N=C2N)cc1 [Compound 156] | <30 | 40 |  |  |
| CCCCc1ccc(C(=O)NCCN2Cc3cc(Oc4ccccc4)ccc3N=C2N)cc1 [Compound 157] | <30 | 50 |  |  |
| CN(C(=O)c1cccc(CN2Cc3cc(-c4cn[nH]c4)ccc3N=C2N)c1)C1CCCCC1 [Compound 161] | <30 |  | <30 | <30 |
| CN(C(=O)c1cccc(CN2Cc3cc(-c4ccc(C(N)=O)cc4)ccc3N=C2N)c1)C1CCCCC1 [Compound 162] | <30 |  | <30 | <30 |
| CN(C(=O)c1cccc(CN2Cc3cc(-c4cccc(C(=O)O)c4)ccc3N=C2N)c1)C1CCCCC1 [Compound 163] | <30 |  | <30 | 33 |
| CC(=O)Nc1cccc(-c2ccc3c(c2)CN(Cc2cccc(C(=O)N(C)C4CCCCC4)c2)C(N)=N3)c1 [Compound 166] | 74 |  | <30 | 37 |
| CN(C(=O)c1cccc(CN2Cc3cc(-c4ccncc4)ccc3N=C2N)c1)C1CCCCC1 [Compound 168] | <30 |  | <30 | <30 |
| CN(C(=O)c1cccc(CN2Cc3cc(-c4cccc(-c5ccccc5)c4)ccc3N=C2N)c1)C1CCCCC1 [Compound 171] | 42 |  | <30 | 31 |
| CN(C)Cc1ccccc1-c1ccc2c(c1)CN(Cc1cccc(C(=O)N(C)C3CCCCC3)c1)C(N)=N2 [Compound 172] | <30 |  | <30 | <30 |
| CN(C(=O)c1cccc(CN2Cc3cc(-c4ccc5[nH]ccc5c4)ccc3N=C2N)c1)C1CCCCC1 [Compound 175] | 37 |  | <30 | <30 |
| NC1=Nc2ccc(Oc3ccccc3)cc2CN1CCC(=O)N(C1CCCCC1)C1CCCCC1 [Compound 180] | 77 |  | <30 | <30 |
| CC(C)N(C(=O)CCN1Cc2cc(Oc3ccccc3)ccc2N=C1N)C(C)C [Compound 181] | 32 |  | <30 | <30 |
| CCCCCC1CCC(C(=O)NCCN2Cc3cc(Oc4ccccc4)ccc3N=C2N)CC1 (stereo not shown) [Compound 182] | 38 |  | <30 | <30 |
| CC(C)(C)C1CCC(C(=O)NCCN2Cc3cc(Oc4ccccc4)ccc3N=C2N)CC1 (stereo not shown) [Compound 184] | 31 |  | <30 | <30 |

| SMILES | % Inhibition (FS) 3 μM [%] | % Inhibition (FS) 10 μM [%] | % Inhibition (FS) 0.3 μM [%] | % Inhibition (FS) 1 μM [%] |
| --- | --- | --- | --- | --- |
| CC1CCC(N(C(=O)c2cccc(CN3Cc4cc(Oc5ccccc5)ccc4N=C3N)c2)C2CCC(C)CC2)CC1 (stereo not shown) [Compound 187] | 39 |  | <30 | <30 |
| NC1=Nc2ccc(Oc3ccccc3)cc2CN1Cc1cccc(C(=O)NCCc2ccc(S(N)(=O)=O)cc2)c1 [Compound 188] | <30 |  | <30 | <30 |
| CN(C)c1ccc(C(=O)NCCN2Cc3cc(Oc4ccccc4)ccc3N=C2N)cc1 [Compound 189] | <30 |  | <30 | <30 |
| CC(C)CC(=O)NCCN1Cc2cc(Oc3ccccc3)ccc2N=C1N [Compound 190] | 101 |  | 51 | 86 |
| CC1CCC(C(=O)NCCN2Cc3cc(Oc4ccccc4)ccc3N=C2N)CC1 (stereo not shown) [Compound 191] | 88 |  | <30 | 46 |
| NC1=Nc2ccc(Oc3ccccc3)cc2CN1Cc1cccc(C(=O)N2CCC3CCCCC3C2)c1 (stereo not shown) [Compound 193] | 67 |  | <30 | 34 |
| CCCCCC1CC2(C(=O)NCCN3Cc4cc(Oc5ccccc5)ccc4N=C3N)CCC1CC2 (stereo not shown) [Compound 194] | 38 |  | <30 | 42 |
| NC1=Nc2ccc(Oc3ccccc3)cc2CN1CCNC(=O)c1ccc(-c2ccccc2)cc1 [Compound 195] | <30 |  | <30 | <30 |
| CCCN(CC1CC1)C(=O)c1cccc(CN2Cc3cc(Oc4ccccc4)ccc3N=C2N)c1 [Compound 197] | 32 |  | <30 | <30 |
| CCCCC(CC)CN(CC(CC)CCCC)C(=O)c1cccc(CN2Cc3cc(Oc4ccccc4)ccc3N=C2N)c1 (stereo not shown) [Compound 198] | <30 |  | <30 | <30 |
| CN(C(=O)CC(C1CCCCC1)N1Cc2cc(Oc3ccccc3)ccc2N=C1N)C1CCCCC1 (stereo not shown) [Compound 199] | 82 |  | <30 | <30 |
| CC(C)N(C(=O)CC(C1CCCCC1)N1Cc2cc(Oc3ccccc3)ccc2N=C1N)C1CCCCC1 (stereo not shown) [Compound 200] | <30 |  | <30 | <30 |
| CC(C)C(CC(=O)N(C(C)C)C1CCCCC1)N1Cc2cc(Oc3ccccc3)ccc2N=C1N (stereo not shown) [Compound 202] | <30 |  | <30 | <30 |
| NC1=Nc2ccc(Oc3ccccc3)cc2CN1CCNC(=O)C(c1ccccc1)c1ccccc1 [Compound 207] | 108 |  | 48 | 90 |
| CCCCCCCCC(CCC(=O)NC1CCCCCC1)N1Cc2cc(Oc3ccccc3)ccc2N=C1N (stereo not shown) [Compound 208] | 67 |  | <30 | <30 |
| CCCCCCCCC(CCC(=O)N(C)C1CCCCC1)N1Cc2cc(Oc3ccccc3)ccc2N=C1N (stereo not shown) [Compound 210] | <30 |  | <30 | <30 |
| NC1=Nc2ccc(Oc3ccccc3)cc2CN1Cc1cccc(C(=O)N2CCCC3CCCCC32)c1 (stereo not shown) [Compound 212] | 32 |  | <30 | <30 |
| CC1CCC(NC(=O)c2cccc(CN3Cc4cc(Oc5ccccc5)ccc4N=C3N)c2)CC1 (stereo not shown) [Compound 213] | <30 |  | <30 | <30 |
